Assay results as given in ChEMBL document CHEMBL6134931, “Lysine-Targeted Covalent Strategy Leading to the Discovery of Novel Potent PROTAC-Based PI3Kδ Degraders” (J Med Chem, 2025).
Activity calls are given as the source filed them. No cut-off for these calls is given here.

What was measured:
[1] = tested on: SU-DHL-6; experiment: Antiproliferative activity against human SU-DHL-6 cells assessed as cell growth inhibition incubated for 72 hrs by MTT assay; format: functional
[2] = tested on: Pfeiffer; experiment: Antiproliferative activity against human Pfeiffer cells assessed as cell growth inhibition incubated for 72 hrs by MTT assay; format: functional
[3] = tested on: SU-DHL-6; experiment: Inhibition of AKT phosphorylation in human SU-DHL-6 cells at 0.1 to 1 uM incubated for 24 hrs by Western blot analysis; format: cell-based; conditions: dose 0.1-1 µM
[4] = tested on: SU-DHL-6; experiment: Inhibition of AKT phosphorylation in human SU-DHL-6 cells at higher concentration incubated for 24 hrs by Western blot analysis; format: cell-based
[5] = tested on: SU-DHL-6; experiment: Induction of autophagy in human SU-DHL-6 cells assessed as increase in LC3-II to LC3-I ratio at 1 to 100 nM incubated for 24 hrs by Western blot analysis; format: functional, cell-based; conditions: dose 1-100 nM
[6] = tested on: SU-DHL-6; experiment: Inhibition of AKT phosphorylation in human SU-DHL-6 cells at 1 to 10000 nM incubated for 24 hrs by Western blot analysis; format: cell-based; conditions: dose 1-10000 nM
[7] = tested on: SU-DHL-6; experiment: Cell cycle arrest in human SU-DHL-6 cells assessed as increase in G1 phase cells at 0.1 uM incubated for 24 hrs by PI staining based flow cytometric analysis; format: functional
[8] = tested on: SU-DHL-6; experiment: Induction of apoptosis in human SU-DHL-6 cells assessed as early apoptotic cells at 1 uM incubated for 24 hrs by Annexin V-FITC/PI staining based flow cytometric analysis (reference value: 2.32 %); format: functional
[9] = tested on: SU-DHL-6; experiment: Induction of apoptosis in human SU-DHL-6 cells assessed as viable cells at 0.1 uM incubated for 24 hrs by Annexin V-FITC/PI staining based flow cytometric analysis (reference value: 92.54 %); format: functional; conditions: read-out: Activity
[10] = tested on: SU-DHL-6; experiment: Induction of apoptosis in human SU-DHL-6 cells assessed as necrotic cells at 0.01 uM incubated for 24 hrs by Annexin V-FITC/PI staining based flow cytometric analysis (reference value: 0.39 %); format: functional
[11] = tested on: SU-DHL-6; experiment: Induction of apoptosis in human SU-DHL-6 cells assessed as late apoptotic cells at 1 uM incubated for 24 hrs by Annexin V-FITC/PI staining based flow cytometric analysis (reference value: 4.75 %); format: functional
[12] = tested on: SU-DHL-6; experiment: Induction of apoptosis in human SU-DHL-6 cells assessed as viable cells at 1 uM incubated for 24 hrs by Annexin V-FITC/PI staining based flow cytometric analysis (reference value: 92.54 %); format: functional; conditions: read-out: Activity
[13] = tested on: SU-DHL-6; experiment: Induction of apoptosis in human SU-DHL-6 cells assessed as late apoptotic cells at 0.01 uM incubated for 24 hrs by Annexin V-FITC/PI staining based flow cytometric analysis (reference value: 4.75 %); format: functional
[14] = tested on: SU-DHL-6; experiment: Induction of apoptosis in human SU-DHL-6 cells assessed as necrotic cells at 1 uM incubated for 24 hrs by Annexin V-FITC/PI staining based flow cytometric analysis (reference value: 0.39 %); format: functional
[15] = tested on: SU-DHL-6; experiment: Cell cycle arrest in human SU-DHL-6 cells assessed as increase in G1 phase cells incubated for 24 hrs by PI staining based flow cytometric analysis; format: functional; conditions: dose 0.01-1 µM
[16] = tested on: SU-DHL-6; experiment: Induction of apoptosis in human SU-DHL-6 cells assessed as necrotic cells at 0.1 uM incubated for 24 hrs by Annexin V-FITC/PI staining based flow cytometric analysis (reference value: 0.39 %); format: functional
[17] = tested on: SU-DHL-6; experiment: Induction of apoptosis in human SU-DHL-6 cells assessed as viable cells at 0.01 uM incubated for 24 hrs by Annexin V-FITC/PI staining based flow cytometric analysis (reference value: 92.54 %); format: functional; conditions: read-out: Activity
[18] = tested on: SU-DHL-6; experiment: Induction of apoptosis in human SU-DHL-6 cells assessed as late apoptotic cells at 0.1 uM incubated for 24 hrs by Annexin V-FITC/PI staining based flow cytometric analysis (reference value: 4.75 %); format: functional
[19] = tested on: SU-DHL-6; experiment: Induction of apoptosis in human SU-DHL-6 cells assessed as early apoptotic cells at 0.1 uM incubated for 24 hrs by Annexin V-FITC/PI staining based flow cytometric analysis (reference value: 2.32 %); format: functional
[20] = tested on: SU-DHL-6; experiment: Induction of apoptosis in human SU-DHL-6 cells assessed as early apoptotic cells at 0.01 uM incubated for 24 hrs by Annexin V-FITC/PI staining based flow cytometric analysis (reference value: 2.32 %); format: functional

## COc1ncc(-c2ccc3ncnc(N[C@H]4CCN(C(=O)C5CCN(CCCCCCC(=O)N[C@H](C(=O)N6C[C@H](O)C[C@H]6C(=O)NCc6ccc(-c7scnc7C)cc6)C(C)(C)C)CC5)C4)c3n2)cc1C(=O)Oc1ccccc1
[1]
  GI50: 2.63 µM
[2]
  GI50: 2.96 µM
[3]
  inhibition: Active

## COc1ncc(-c2ccc3ncnc(N[C@H]4CCN(CCCCCCCCC(=O)N[C@H](C(=O)N5C[C@H](O)C[C@H]5C(=O)NCc5ccc(-c6scnc6C)cc5)C(C)(C)C)C4)c3n2)cc1C(=O)Oc1ccccc1
[1]
  GI50: 1.37 µM
[2]
  GI50: 1.25 µM
[3]
  inhibition: Active

## COc1ncc(-c2ccc3ncnc(N[C@H]4CCN(C(=O)CCCCCCC(=O)N[C@H](C(=O)N5C[C@H](O)C[C@H]5C(=O)NCc5ccc(-c6scnc6C)cc5)C(C)(C)C)C4)c3c2)cc1C#N
[1]
  GI50: > 10 µM
[3]
  inhibition: inactive

## COc1ncc(-c2ccc3ncnc(N[C@H]4CCN(CCCCCCC(=O)N[C@H](C(=O)N5C[C@H](O)C[C@H]5C(=O)NCc5ccc(-c6scnc6C)cc5)C(C)(C)C)C4)c3n2)cc1C(=O)Oc1ccccc1
[1]
  GI50: 1.23 µM
[2]
  GI50: 1.41 µM
[3]
  inhibition: Active

## COc1ncc(-c2ccc3ncnc(N[C@H]4CCN(C(=O)CCC(=O)NCCCC(=O)Nc5cccc6c5CN(C5CCC(=O)NC5=O)C6=O)C4)c3c2)cc1C#N (some centres not stated)
[1]
  GI50: > 10 µM
[3]
  inhibition: inactive

## COc1ncc(-c2ccc3ncnc(N[C@H]4CCN(C(=O)CCCCCCC(=O)Nc5cccc6c5CN(C5CCC(=O)NC5=O)C6=O)C4)c3c2)cc1C#N (some centres not stated)
[1]
  GI50: > 10 µM
[3]
  inhibition: inactive

## COc1ncc(-c2ccc3ncnc(N[C@H]4CCN(CCCCCCCC(=O)N[C@H](C(=O)N5C[C@H](O)C[C@H]5C(=O)NCc5ccc(-c6scnc6C)cc5)C(C)(C)C)C4)c3n2)cc1C(=O)Oc1ccccc1
[1]
  GI50: 0.9 µM
[2]
  GI50: 1.28 µM
[3]
  inhibition: Active

## COc1ncc(-c2ccc3ncnc(N[C@H]4CCN(C(=O)C5CCN(CCCCCCCCCC(=O)N[C@H](C(=O)N6C[C@H](O)C[C@H]6C(=O)N[C@@H](C)c6ccc(-c7scnc7C)cc6)C(C)(C)C)CC5)C4)c3n2)cc1C(=O)Nc1ccccc1
[4]
  inhibition: Active
[1]
  GI50: 0.9 µM

## COc1ncc(-c2ccc3ncnc(N[C@H]4CCN(C(=O)C5CCN(CCCCCCCCCCCC(=O)N[C@H](C(=O)N6C[C@H](O)C[C@H]6C(=O)NCc6ccc(-c7scnc7C)cc6)C(C)(C)C)CC5)C4)c3n2)cc1C(=O)Oc1ccccc1
[1]
  GI50: 0.4 µM
[2]
  GI50: 1.94 µM
[3]
  inhibition: Active

## COc1ncc(-c2ccc3ncnc(N[C@H]4CCN(C(=O)C5CCN(CCCCCCCCC(=O)N[C@H](C(=O)N6C[C@H](O)C[C@H]6C(=O)NCc6ccc(-c7scnc7C)cc6)C(C)(C)C)CC5)C4)c3n2)cc1C(=O)Oc1ccccc1
[1]
  GI50: 0.73 µM
[2]
  GI50: 0.6 µM
[3]
  inhibition: Active

## COc1ncc(-c2ccc3ncnc(N[C@H]4CCN(C(=O)C5CCN(CCCCCCCCCCCCC(=O)N[C@H](C(=O)N6C[C@H](O)C[C@H]6C(=O)NCc6ccc(-c7scnc7C)cc6)C(C)(C)C)CC5)C4)c3n2)cc1C(=O)Oc1ccccc1
[1]
  GI50: 0.48 µM
[2]
  GI50: 1.06 µM
[3]
  inhibition: Active

## COc1ncc(-c2ccc3ncnc(N[C@H]4CCN(C(=O)C5CCN(CCCCCC(=O)N[C@H](C(=O)N6C[C@H](O)C[C@H]6C(=O)NCc6ccc(-c7scnc7C)cc6)C(C)(C)C)CC5)C4)c3n2)cc1C(=O)Oc1ccccc1
[1]
  GI50: 2.47 µM
[2]
  GI50: > 10 µM
[3]
  inhibition: Active

## COc1ncc(-c2ccc3ncnc(N[C@H]4CCN(C(=O)C5CCN(CCCCCCCCCCC(=O)N[C@H](C(=O)N6C[C@H](O)C[C@H]6C(=O)NCc6ccc(-c7scnc7C)cc6)C(C)(C)C)CC5)C4)c3n2)cc1C(=O)Oc1ccccc1
[1]
  GI50: 0.18 µM
[5]
  Activity: Active
[2]
  GI50: 0.34 µM
[3]
  inhibition: Active
[6]
  inhibition: Active

## COc1ncc(-c2ccc3ncnc(N[C@H]4CCN(C(=O)C5CCN(CCCCCCCCCC(=O)Nc6cccc7c6CN(C6CCC(=O)NC6=O)C7=O)CC5)C4)c3n2)cc1C(=O)Oc1ccccc1 (some centres not stated)
[1]
  GI50: 0.49 µM
[2]
  GI50: > 10 µM
[3]
  inhibition: Active

## COc1ncc(-c2ccc3ncnc(N[C@H]4CCN(C(=O)C5CCN(CCCCCCCCCC(=O)N[C@H](C(=O)N6C[C@H](O)C[C@H]6C(=O)NCc6ccc(-c7scnc7C)cc6)C(C)(C)C)CC5)C4)c3n2)cc1C(=O)Oc1ccccc1
[7]
  Activity: Active; More Potent Than 10 Um Idelalisib
[8]
  Activity: 1.16%
[1]
  GI50: 0.2 µM
[9]
  viability at 0.1 µM: 90.1%
[10]
  Activity: 0.11%
[11]
  Activity: 72.97%
[5]
  Activity: Active
[12]
  viability at 1 µM: 20.4%
[13]
  Activity: 4.79%
[14]
  Activity: 5.5%
[15]
  Activity: Dose-dependent-effect
[16]
  Activity: 0.31%
[2]
  GI50: 0.37 µM
[3]
  inhibition: Active
[17]
  viability at 0.01 µM: 92.4%
[6]
  inhibition: Active
[18]
  Activity: 7.29%
[19]
  Activity: 2.29%
[20]
  Activity: 2.73%

## COc1ncc(-c2ccc3ncnc(N[C@H]4CCN(C(=O)CCC(=O)NCCC(=O)Nc5cccc6c5CN(C5CCC(=O)NC5=O)C6=O)C4)c3c2)cc1C#N (some centres not stated)
[1]
  GI50: > 10 µM
[3]
  inhibition: inactive

## COc1ncc(-c2ccc3ncnc(N[C@H]4CCN(CCCCCCCCCC(=O)N[C@H](C(=O)N5C[C@H](O)C[C@H]5C(=O)NCc5ccc(-c6scnc6C)cc5)C(C)(C)C)C4)c3n2)cc1C(=O)Oc1ccccc1
[1]
  GI50: 2.48 µM
[2]
  GI50: 1.37 µM
[3]
  inhibition: Active

## COc1ncc(-c2ccc3ncnc(N[C@H]4CCN(C(=O)C5CCN(C(=O)CCCCCCCCCN[C@H](C(=O)N6C[C@H](O)C[C@H]6C(=O)NCc6ccc(-c7scnc7C)cc6)C(C)(C)C)CC5)C4)c3n2)cc1C(=O)Oc1ccccc1
[1]
  GI50: 0.3 µM
[2]
  GI50: > 10 µM
[3]
  inhibition: Active

## COc1ncc(-c2ccc3ncnc(N[C@H]4CCN(C(=O)C5CCN(CCCCCCCCCC(=O)N[C@H](C(=O)N6C[C@@H](O)C[C@H]6C(=O)N[C@@H](C)c6ccc(-c7scnc7C)cc6)C(C)(C)C)CC5)C4)c3n2)cc1C(=O)Oc1ccccc1
[4]
  inhibition: Active
[1]
  GI50: 0.87 µM

## COc1ncc(-c2ccc3ncnc(N[C@H]4CCN(C(=O)CCC(=O)NCCCCCC(=O)Nc5cccc6c5CN(C5CCC(=O)NC5=O)C6=O)C4)c3c2)cc1C#N (some centres not stated)
[1]
  GI50: > 10 µM
[3]
  inhibition: inactive

## COc1ncc(-c2ccc3ncnc(N[C@H]4CCN(C(=O)CCCCC(=O)Nc5cccc6c5CN(C5CCC(=O)NC5=O)C6=O)C4)c3c2)cc1C#N (some centres not stated)
[1]
  GI50: > 10 µM
[3]
  inhibition: inactive

## COc1ncc(-c2ccc3ncnc(N[C@H]4CCN(C(=O)C5CCN(CCCCCCCC(=O)N[C@H](C(=O)N6C[C@H](O)C[C@H]6C(=O)NCc6ccc(-c7scnc7C)cc6)C(C)(C)C)CC5)C4)c3n2)cc1C(=O)Oc1ccccc1
[1]
  GI50: 0.76 µM
[2]
  GI50: 0.77 µM
[3]
  inhibition: Active

## COc1ncc(-c2ccc3ncnc(N[C@H]4CCN(C(=O)CCC(=O)NCCOCCOCC(=O)Nc5cccc6c5CN(C5CCC(=O)NC5=O)C6=O)C4)c3c2)cc1C#N (some centres not stated)
[1]
  GI50: > 10 µM
[3]
  inhibition: inactive

## COc1ncc(-c2ccc3ncnc(N[C@H]4CCN(C(=O)CCCCCC(=O)Nc5cccc6c5CN(C5CCC(=O)NC5=O)C6=O)C4)c3c2)cc1C#N (some centres not stated)
[1]
  GI50: > 10 µM
[3]
  inhibition: inactive

## COc1ncc(-c2ccc3ncnc(N[C@H]4CCN(C(=O)CCC(=O)NCC(=O)Nc5cccc6c5CN(C5CCC(=O)NC5=O)C6=O)C4)c3c2)cc1C#N (some centres not stated)
[1]
  GI50: > 10 µM
[3]
  inhibition: inactive
